Two molecules from paper PMC8333425, “Discovery of a dual Ras and ARF6 inhibitor from a GPCR endocytosis screen” (Nature Communications, 2021) can be followed below.

Where “and” joins values, the source holds several entries; their conditions need not be identical. Identical values can stand only once.

One experiment concerns the target K-Ras (Homo sapiens, UniProt P01116). The experiment is described as follows: Ras BRET sensor in cells overexpressing WT K-Ras and AT1R. Further details: expressed in transfected cells; host or cells: HEK293SL. It counts as cell-based. The source says: Because Tyr32 and Tyr40, located on the switch I domain of Ras, are critical for stabilizing Rasarfin binding through interactions with both the chlorine and isopropyl moiety (Fig. 7a, c), we reasoned that substituting them for Ala residues would negatively impact Rasarfin’s inhibitory action on Ras. […] Because we wanted to assess the inhibitory action of Rasarfin over different Ras subtypes, we mutated the two tyrosine residues to an alanine in K-Ras (Y32A, Y40A, and Y32A/Y40A mutants) within the same Rasarfin binding site found in H-Ras (Lys^5-Thr^74). This domain and residues are perfectly conserved among the Ras family members[44],[45]. WT K-Ras and K-Ras mutants were overexpressed along with AT1R in cells and AngII-mediated activation of Ras was assessed using the Ras BRET sensor (Supplementary Fig. 11a).
HEK293SL cells were seeded at a density of 7.5 × 10^5 cells per 100-mm dish and 24 h later, transiently transfected as such. For receptor internalization experiments, cells were transfected with 0.12 μg AT1R-RlucII, B2R-RlucII, or β2AR-RlucII and 0.48 μg of either rGFP-CAAX (to assess removal from the PM) or rGFP-FYVE (to assess accumulation in the endosomes). For β-arrestin recruitment assays, cells were transfected with 0.48 μg of receptor-YFP along with 0.12 μg of β-arrestin-RlucII. […] For kinetics of β-arrestin recruitment or β-arrestin binding to receptor and AP-2 experiments, cells were serum starved for 30 min, pretreated with 21 (50 µM) or Barbadin (100 µM) for 30 min, stimulated with 100 nM AngII or 1 µM BK and BRET signals were monitored at indicated times using a Victor X Light plate reader (PerkinElmer). […] The BRET ratio was determined by calculating the ratio of the light emitted by YFP over the light emitted by the RlucII. […] For the kinetics of GTPase and PI3K/Akt activation, cells were serum starved, pretreated with 21 (50 µM) or Wortmannin (200 nM) for 30 min, stimulated with ligand (100 nM AngII or 100 ng/ml EGF) and BRET signals were monitored at indicated times. […]

Another experiment deals with ERK1/2 activation by V2R. Kind of experiment: Western blot of V2R-mediated ERK1/2 activation (rebuttal Figure 1). It counts as cell-based, human. The note with it: Barbadin 100 µM.

Sequence of K-Ras (P01116 1-188 isoform P01116-2): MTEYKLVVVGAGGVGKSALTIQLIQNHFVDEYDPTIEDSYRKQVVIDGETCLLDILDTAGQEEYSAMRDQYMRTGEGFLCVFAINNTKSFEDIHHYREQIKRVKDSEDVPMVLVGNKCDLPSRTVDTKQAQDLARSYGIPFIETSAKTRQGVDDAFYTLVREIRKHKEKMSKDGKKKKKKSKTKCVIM

On to `CC(C)C(=O)N1CCN(c2ccc(NC(=O)c3cc4ccccc4o3)cc2Cl)CC1` [Compound 21], for which the “AngII-mediated activation of WT K-Ras (Ras BRET sensor)” value on K-Ras (50 μM) is on record as “only WT was significantly inhibited by Rasarfin”. Further, the “AngII-promoted BRET” value at K-Ras (Rasarfin 50 μM, K-Ras WT) is 0.0405 and 0.05833 and 0.04947 and 0.058. For the same molecule, the “AngII-promoted BRET, Mean Diff. DMSO - Rasarfin” value on K-Ras (Rasarfin 50 μM, K-Ras WT, Bonferroni's multiple comparisons test) is on record as 0.04859.
In the case of `Nn1cnc2scc(-c3ccc(Cc4ccccc4)cc3)c2c1=O` [Barbadin, reference compound], the “V2R-mediated ERK1/2 phosphorylation in HEK293 cells” value in the experiment on ERK1/2 activation by V2R is “potent inhibition”.
